SMILES strings stand for the structures.

One assay deals with EGFR T790M (Homo sapiens, UniProt P00533, T790M). Description: EGFR Enzyme Assay. In kind it is biochemical. To be noted: 1 uM compound, read-out: T790M (% inh @ 1 uM). Here is the method:
The following TABLE III lists compounds representative of the invention and their activity in EGFR assays. In these assays, the following grading was used: A: >50% @1 μM; B: <50% @ 1 μM.

For a further assay, the target named is BTK (Homo sapiens, UniProt Q06187). In words: BTK Enzyme Assay. In kind it is biochemical. To be noted: 1 uM compound; read-out: BTK (% inh @ 1 uM). The protocol: The following TABLE II lists compounds representative of the invention and their activity in BTK assays. In these assays, the following grading was used: A: >30% inhibition @1 μM; B: <30% inhibition @1 μM.
Chain of BTK (Q06187 whole entry): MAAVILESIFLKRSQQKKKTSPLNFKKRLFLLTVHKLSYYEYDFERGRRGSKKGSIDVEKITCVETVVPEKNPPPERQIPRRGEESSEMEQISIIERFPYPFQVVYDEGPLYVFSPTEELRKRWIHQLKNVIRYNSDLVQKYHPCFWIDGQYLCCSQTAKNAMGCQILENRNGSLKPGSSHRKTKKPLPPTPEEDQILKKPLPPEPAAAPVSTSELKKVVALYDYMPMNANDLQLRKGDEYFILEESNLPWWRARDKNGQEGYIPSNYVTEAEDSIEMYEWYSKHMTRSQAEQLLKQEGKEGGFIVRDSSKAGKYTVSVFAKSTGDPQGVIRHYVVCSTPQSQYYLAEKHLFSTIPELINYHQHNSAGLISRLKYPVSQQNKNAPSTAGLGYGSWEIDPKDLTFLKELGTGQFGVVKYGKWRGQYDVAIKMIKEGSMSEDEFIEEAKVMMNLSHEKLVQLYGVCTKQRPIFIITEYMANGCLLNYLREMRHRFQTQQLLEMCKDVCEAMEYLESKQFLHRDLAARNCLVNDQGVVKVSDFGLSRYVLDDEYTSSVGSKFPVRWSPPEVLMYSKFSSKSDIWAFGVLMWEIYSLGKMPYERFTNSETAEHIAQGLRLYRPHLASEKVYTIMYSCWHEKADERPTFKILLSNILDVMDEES

Chain of EGFR T790M (P00533 25-1210 T790M): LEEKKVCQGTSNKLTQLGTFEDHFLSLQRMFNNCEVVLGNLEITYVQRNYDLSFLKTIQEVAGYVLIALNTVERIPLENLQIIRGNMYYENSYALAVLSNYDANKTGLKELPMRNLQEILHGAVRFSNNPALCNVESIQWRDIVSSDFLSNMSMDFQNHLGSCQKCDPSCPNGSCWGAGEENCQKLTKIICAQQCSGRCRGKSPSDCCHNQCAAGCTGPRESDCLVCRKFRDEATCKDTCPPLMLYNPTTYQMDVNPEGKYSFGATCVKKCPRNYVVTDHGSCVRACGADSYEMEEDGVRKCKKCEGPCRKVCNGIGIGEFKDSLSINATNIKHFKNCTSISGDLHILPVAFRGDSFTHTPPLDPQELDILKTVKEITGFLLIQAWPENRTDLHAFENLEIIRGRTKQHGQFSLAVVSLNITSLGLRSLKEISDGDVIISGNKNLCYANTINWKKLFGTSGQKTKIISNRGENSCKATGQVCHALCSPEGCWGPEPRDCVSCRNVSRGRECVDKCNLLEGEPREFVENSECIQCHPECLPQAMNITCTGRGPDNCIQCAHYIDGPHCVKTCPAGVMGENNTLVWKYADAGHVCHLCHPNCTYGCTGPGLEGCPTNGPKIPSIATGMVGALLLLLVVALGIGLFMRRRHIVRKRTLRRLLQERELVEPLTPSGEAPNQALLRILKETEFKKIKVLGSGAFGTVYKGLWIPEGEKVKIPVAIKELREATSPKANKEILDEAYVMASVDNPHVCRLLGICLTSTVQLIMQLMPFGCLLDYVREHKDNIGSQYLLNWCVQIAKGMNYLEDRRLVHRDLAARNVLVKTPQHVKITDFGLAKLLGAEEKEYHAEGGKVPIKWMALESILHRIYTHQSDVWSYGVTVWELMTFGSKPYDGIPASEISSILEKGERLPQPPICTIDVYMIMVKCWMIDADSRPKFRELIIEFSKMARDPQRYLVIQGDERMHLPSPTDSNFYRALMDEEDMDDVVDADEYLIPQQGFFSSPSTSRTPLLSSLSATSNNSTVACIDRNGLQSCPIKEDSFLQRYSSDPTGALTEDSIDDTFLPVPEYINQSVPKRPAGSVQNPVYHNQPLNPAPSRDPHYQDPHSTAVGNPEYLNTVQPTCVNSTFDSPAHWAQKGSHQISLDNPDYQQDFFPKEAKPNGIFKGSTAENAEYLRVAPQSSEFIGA

With `C=CC(=O)Nc1cc(Nc2nc(-c3cccc(NC)c3)c3sccc3n2)c(OC)cc1OCCN1CCOCC1` [Compound 35, N-[4-methoxy-5-[[4-[3-(methylamino)phenyl]thieno[3,2-d]pyrimidin-2-yl]amino]-2-(2-morpholinoethoxy)phenyl]prop-2-enamide], the inhibition at 1 µM was more than 50% at EGFR T790M and less than 30% at BTK.

Turning to `C=CC(=O)Nc1cc(NC2=NC(c3cccc(NC)c3)C3SC=CC3=N2)c(OC)cc1N1CCN(C)CC1` (centres unmarked) [Compound 7, N-[4-methoxy-5-[[4-[3-(methylamino)phenyl]-4,4a-dihydrothieno[3,2-d]pyrimidin-2-yl]amino]-2-(4-methylpiperazin-1-yl)phenyl]prop-2-enamide], on BTK, the inhibition at 1 µM was more than 30%.

In the case of `C=CC(=O)Nc1cc(Nc2nc(-c3c[nH]c4ccccc34)c3sccc3n2)c(OC)cc1N1CCN(C)CC1` [Compound 21, N-[5-[[4-(1H-indol-3-yl)thieno[3,2-d]pyrimidin-2-yl]amino]-4-methoxy-2-(4-methylpiperazin-1-yl)phenyl]prop-2-enamide], the inhibition at 1 µM on BTK is more than 30%.

Regarding `C=CC(=O)Nc1cc(Nc2nc(-c3cccc4ccn(C)c34)c3sccc3n2)c(OC)cc1N1CCN(C)CC1` [Compound 44, N-[4-methoxy-5-[[4-(1-methylindol-7-yl)thieno[3,2-d]pyrimidin-2-yl]amino]-2-(4-methylpiperazin-1-yl)phenyl]prop-2-enamide], on BTK, the inhibition at 1 µM is more than 30%.

As for `C=CC(=O)Nc1cc(NC2=NC(c3cccc(N(C)C)c3)C3SC=CC3=N2)c(OC)cc1N1CCOCC1` (centres unmarked) [Compound 10, N-[5-[[4-[3-(dimethylamino)phenyl]-4,4a-dihydrothieno[3,2-d]pyrimidin-2-yl]amino]-4-methoxy-2-morpholino-phenyl]prop-2-enamide], the inhibition at 1 µM on EGFR T790M was more than 50%; on BTK it was more than 30%.

In the case of `C=CC(=O)Nc1cc(Nc2nc(-c3ccc(NC)cc3)c3sccc3n2)c(OC)cc1N(C)CC` [Compound 39, N-[2-[ethyl(methyl)amino]-4-methoxy-5-[[4-[4-(methylamino)phenyl]thieno[3,2-d]pyrimidin-2-yl]amino]phenyl]prop-2-enamide], on BTK, the inhibition at 1 µM was more than 30%.

`C=CC(=O)Nc1cc(NC2=NC(c3cccc(NC(C)(C)C)c3)C3SC=CC3=N2)c(OC)cc1N1CCOCC1` (centres unmarked) [Compound 11, N-[5-[[4-[3-(tert-butylamino)phenyl]-4,4a-dihydrothieno[3,2-d]pyrimidin-2-yl]amino]-4-methoxy-2-morpholino-phenyl]prop-2-enamide]: the inhibition at 1 µM on BTK is more than 30%.

With `C=CC(=O)Nc1cc(NC2=NC(c3cccc(OC)c3)C3C(=N2)C=CN3C)c(OC)cc1N1CCC(N(C)C)CC1` (centres unmarked) [Compound 28, N-[2-[4-(dimethylamino)-1-piperidyl]-4-methoxy-5-[[4-(3-methoxyphenyl)-5-methyl-4,4a-dihydropyrrolo[3,2-d]pyrimidin-2-yl]amino]phenyl]prop-2-enamide], the inhibition at 1 µM on BTK is less than 30%.

Consider `C=CC(=O)Nc1cc(Nc2nc(-c3ccn(C)c3)c3sccc3n2)c(OC)cc1N1CCN(C)CC1` [Compound 48, N-[4-methoxy-2-(4-methylpiperazin-1-yl)-5-[[4-(1-methylpyrrol-3-yl)thieno[3,2-d]pyrimidin-2-yl]amino]phenyl]prop-2-enamide], for which, at BTK, the inhibition at 1 µM is more than 30%.

`C=CC(=O)Nc1cc(N(C)c2nc(-c3c[nH]c4ccccc34)c3sccc3n2)c(OC)cc1N1CCOCC1` [Compound 51, N-[5-[[4-(1H-indol-3-yl)thieno[3,2-d]pyrimidin-2-yl]-methyl-amino]-4-methoxy-2-morpholino-phenyl]prop-2-enamide]: the inhibition at 1 µM on BTK was less than 30%.

As to `C=CC(=O)Nc1cc(NC2=NC(c3cccc(OC)c3)C3SC=CC3=N2)c(OC)cc1N1CCC(N(C)C)CC1` (centres unmarked) [Compound 20, N-[2-[4-(dimethylamino)-1-piperidyl]-4-methoxy-5-[[4-(3-methoxyphenyl)-4,4a-dihydrothieno[3,2-d]pyrimidin-2-yl]amino]phenyl]prop-2-enamide], on BTK, the inhibition at 1 µM was less than 30%.

In the case of `C=CC(=O)Nc1cc(Nc2nc(-c3ccc(NC)cc3)c3sccc3n2)c(OC)cc1N1CCN(C)CC1` [Compound 25, N-[4-methoxy-5-[[4-[4-(methylamino)phenyl]thieno[3,2-d]pyrimidin-2-yl]amino]-2-(4-methylpiperazin-1-yl)phenyl]prop-2-enamide], the inhibition at 1 µM on BTK is less than 30%.

For the compound `C=CC(=O)Nc1cc(Nc2nc(-c3cn(C)c4ccccc34)c3sccc3n2)c(OC)cc1N(C)C` [Compound 38, N-[2-(dimethylamino)-4-methoxy-5-[[4-(1-methylindol-3-yl)thieno[3,2-d]pyrimidin-2-yl]amino]phenyl]prop-2-enamide], the inhibition at 1 µM at BTK is more than 30%.

`C=CC(=O)Nc1cc(Nc2nc(-c3cc[nH]c3)c3ccsc3n2)c(OC)cc1N1CCN(C)CC1` [Compound 47, N-[4-methoxy-2-(4-methylpiperazin-1-yl)-5-[[4-(1H-pyrrol-3-yl)thieno[2,3-d]pyrimidin-2-yl]amino]phenyl]prop-2-enamide]: the inhibition at 1 µM on BTK is less than 30%.

On to `C=CC(=O)Nc1cc(NC2=NC(c3cccc(N(C)C)c3)C3SC=CC3=N2)c(OC)cc1N(C)CCN1CCOCC1` (centres unmarked) [Compound 8, N-[5-[[4-[3-(dimethylamino)phenyl]-4,4a-dihydrothieno[3,2-d]pyrimidin-2-yl]amino]-4-methoxy-2-[methyl(2-morpholinoethyl)amino]phenyl]prop-2-enamide], for which the inhibition at 1 µM at BTK is more than 30%.

Turning to `C=CC(=O)Nc1cc(NC2=NC(c3cccc(NC)c3)C3SC=CC3=N2)c(OC)cc1OCCN1CCCCC1` (centres unmarked) [Compound 15, N-[4-methoxy-5-[[4-[3-(methylamino)phenyl]-4,4a-dihydrothieno[3,2-d]pyrimidin-2-yl]amino]-2-[2-(1-piperidyl)ethoxy]phenyl]prop-2-enamide], on BTK, the inhibition at 1 µM was more than 30%.

In the case of `C=CC(=O)Nc1cc(NC2=NC(c3cccc(N(C)C)c3)C3SC=CC3=N2)c(OC)cc1OCCN(C)C` (centres unmarked) [Compound 12, N-[2-[2-(dimethylamino)ethoxy]-5-[[4-[3-(dimethylamino)phenyl]-4,4a-dihydrothieno[3,2-d]pyrimidin-2-yl]amino]-4-methoxy-phenyl]prop-2-enamide], at BTK, the inhibition at 1 µM was more than 30%.

Consider `C=CC(=O)Nc1cc(Nc2nc(-c3cccc4cc[nH]c34)c3sccc3n2)c(OC)cc1N1CCN(C)CC1` [Compound 45, N-[5-[[4-(1H-indol-7-yl)thieno[3,2-d]pyrimidin-2-yl]amino]-4-methoxy-2-(4-methylpiperazin-1-yl)phenyl]prop-2-enamide], for which, at BTK, the inhibition at 1 µM is less than 30%.

In the case of `C=CC(=O)Nc1cc(Nc2nc(-c3ccccc3NC)c3sccc3n2)c(OC)cc1N(C)CCN(C)C` [Compound 31, N-[2-[2-(dimethylamino)ethyl-methyl-amino]-4-methoxy-5-[[4-[2-(methylamino)phenyl]thieno[3,2-d]pyrimidin-2-yl]amino]phenyl]prop-2-enamide], the inhibition at 1 µM at BTK was less than 30%.

For the compound `C=CC(=O)Nc1cc(Nc2nc(-c3c[nH]c4ccccc34)c3sccc3n2)c(OC)cc1N1CCC(NC)CC1` [Compound 3, N-[5-[[4-(1H-indol-3-yl)thieno[3,2-d]pyrimidin-2-yl]amino]-4-methoxy-2-[4-(methylamino)-1-piperidyl]phenyl]prop-2-enamide], the inhibition at 1 µM at BTK is more than 30%.

Take `C=CC(=O)Nc1cc(Nc2nc(-c3ccc(NC(C)(C)C)cc3)c3sccc3n2)c(OC)cc1N1CCN(C)CC1` [Compound 27, N-[5-[[4-[4-(tert-butylamino)phenyl]thieno[3,2-d]pyrimidin-2-yl]amino]-4-methoxy-2-(4-methylpiperazin-1-yl)phenyl]prop-2-enamide]: the inhibition at 1 µM at BTK is more than 30%.

As to `C=CC(=O)Nc1cc(Nc2nc(-c3cn(C)c4ccccc34)c3sccc3n2)c(OC)cc1OCCN1CCOCC1` [Compound 34, N-[4-methoxy-5-[[4-(1-methylindol-3-yl)thieno[3,2-d]pyrimidin-2-yl]amino]-2-(2-morpholinoethoxy)phenyl]prop-2-enamide], the inhibition at 1 µM on BTK was less than 30%.

Turning to `C=CC(=O)Nc1cc(Nc2nc(-c3ccn(C)c3)c3ccsc3n2)c(OC)cc1N1CCN(C)CC1` [Compound 46, N-[4-methoxy-2-(4-methylpiperazin-1-yl)-5-[[4-(1-methylpyrrol-3-yl)thieno[2,3-d]pyrimidin-2-yl]amino]phenyl]prop-2-enamide], on BTK, the inhibition at 1 µM was more than 30%.

Consider `C=CC(=O)Nc1cc(Nc2nc(-c3ccccc3)c3ccsc3n2)c(OC)cc1N(C)CCN(C)C` [Compound 32, N-[2-[2-(dimethylamino)ethyl-methyl-amino]-4-methoxy-5-[(4-phenylthieno[2,3-d]pyrimidin-2-yl)amino]phenyl]prop-2-enamide], for which the inhibition at 1 µM at BTK is more than 30%.

Consider `C=CC(=O)Nc1cc(N(C)c2nc(-c3cn(C)c4ccccc34)c3sccc3n2)c(OC)cc1N(C)CCN(C)C` [Compound 54, N-[2-[2-(dimethylamino)ethyl-methyl-amino]-4-methoxy-5-[methyl-[4-(1-methylindol-3-yl)thieno[3,2-d]pyrimidin-2-yl]amino]phenyl]prop-2-enamide], for which, at BTK, the inhibition at 1 µM is less than 30%.

For the compound `C=CC(=O)Nc1cc(NC2=NC(c3cccc(N(C)C)c3)C3SC=CC3=N2)c(OC)cc1N(C)C` (centres unmarked) [Compound 4, N-[2-(dimethylamino)-5-[[4-[3-(dimethylamino)phenyl]-4,4a-dihydrothieno[3,2-d]pyrimidin-2-yl]amino]-4-methoxy-phenyl]prop-2-enamide], the inhibition at 1 µM at BTK was more than 30%.

For `C=CC(=O)Nc1cc(Nc2nc(-c3ccccc3NC)c3sccc3n2)c(OC)cc1N1CCN(C)CC1` [Compound 29, N-[4-methoxy-5-[[4-[2-(methylamino)phenyl]thieno[3,2-d]pyrimidin-2-yl]amino]-2-(4-methylpiperazin-1-yl)phenyl]prop-2-enamide], on BTK, the inhibition at 1 µM is less than 30%.

The values above are taken from patent US10844074B2, “Heterocycle compounds and uses thereof” (ZHEJIANG JIANFENG-YIEN BIOTECHNOLOGY CO., LTD., priority 2015, dated 2020).
